Patent publication US20240327351A1, “AMIDE AND ETHER SUBSTITUTED N-(1H-INDOL-7-YL)BENZENESULFONAMIDES AND USES THEREOF” (TRIANA BIOMEDICINES, INC., priority 2021, published 2024)

Key:
[1] = target: DCAF15/RBM39 (Homo sapiens, UniProt Q14498+Q66K64); assay: AlphaLISA compound-induced DCAF15-RBM39 ternary complex formation; assay type: binding; conditions: His-tagged DCAF15 complex and biotin-carrying RBM39
In short: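 Compounds, serially diluted 3-fold from 2 mM DMSO stocks, were incubated 1 h at room temperature with His-tagged DCAF15 complex and biotinylated RBM39 (mixture at 408 nM each, 2.04×). The buffer was 50 mM HEPES pH 7.5, 100 mM NaCl, 2 mM MgCl2, 2 mM TCEP. Ni-chelate acceptor and streptavidin donor beads were added sequentially (1–2 h each), and the AlphaLISA signal was titrated.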

[2] = target: T1, RBM39 (Homo sapiens, UniProt Q14498+Q66K64); assay: Western blot assay for degradation of RBM39 in HCT116 cells; assay type: cell-based; conditions: HCT-116, numeric values
T1 construct: endogenous in cells; host or cells: HCT116
T1 sequence (Q66K64 whole entry): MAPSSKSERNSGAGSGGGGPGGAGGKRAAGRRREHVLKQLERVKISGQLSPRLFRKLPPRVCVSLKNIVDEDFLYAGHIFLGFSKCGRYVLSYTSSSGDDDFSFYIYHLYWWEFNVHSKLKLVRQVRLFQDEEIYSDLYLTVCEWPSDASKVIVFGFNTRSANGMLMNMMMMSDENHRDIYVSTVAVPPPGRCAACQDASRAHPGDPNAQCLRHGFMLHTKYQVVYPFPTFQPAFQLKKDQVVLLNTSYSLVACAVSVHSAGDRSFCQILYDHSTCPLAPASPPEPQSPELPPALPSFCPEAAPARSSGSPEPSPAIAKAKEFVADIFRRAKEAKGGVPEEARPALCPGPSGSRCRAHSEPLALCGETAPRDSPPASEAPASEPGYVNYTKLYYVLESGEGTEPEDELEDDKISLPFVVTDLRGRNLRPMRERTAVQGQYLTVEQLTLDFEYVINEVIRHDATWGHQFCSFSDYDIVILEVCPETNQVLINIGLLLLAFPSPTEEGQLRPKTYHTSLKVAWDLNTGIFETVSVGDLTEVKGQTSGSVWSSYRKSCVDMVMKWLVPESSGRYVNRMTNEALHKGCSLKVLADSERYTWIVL
T1 sequence (Q14498 2-530): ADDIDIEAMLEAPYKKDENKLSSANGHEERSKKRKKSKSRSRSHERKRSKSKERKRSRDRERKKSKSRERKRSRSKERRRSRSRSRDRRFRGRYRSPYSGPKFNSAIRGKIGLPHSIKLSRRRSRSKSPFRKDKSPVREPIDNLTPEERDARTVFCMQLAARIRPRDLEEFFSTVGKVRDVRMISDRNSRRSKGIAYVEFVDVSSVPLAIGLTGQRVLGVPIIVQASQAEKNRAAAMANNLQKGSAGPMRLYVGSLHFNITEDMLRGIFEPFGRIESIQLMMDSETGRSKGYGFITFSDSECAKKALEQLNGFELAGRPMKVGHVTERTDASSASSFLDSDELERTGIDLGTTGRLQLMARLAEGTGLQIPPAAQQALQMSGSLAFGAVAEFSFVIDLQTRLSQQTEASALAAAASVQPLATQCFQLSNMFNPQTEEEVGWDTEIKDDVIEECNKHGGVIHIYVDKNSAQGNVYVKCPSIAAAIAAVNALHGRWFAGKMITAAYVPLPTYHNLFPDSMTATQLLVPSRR
T1 sequence (Q16531 whole entry, further chain): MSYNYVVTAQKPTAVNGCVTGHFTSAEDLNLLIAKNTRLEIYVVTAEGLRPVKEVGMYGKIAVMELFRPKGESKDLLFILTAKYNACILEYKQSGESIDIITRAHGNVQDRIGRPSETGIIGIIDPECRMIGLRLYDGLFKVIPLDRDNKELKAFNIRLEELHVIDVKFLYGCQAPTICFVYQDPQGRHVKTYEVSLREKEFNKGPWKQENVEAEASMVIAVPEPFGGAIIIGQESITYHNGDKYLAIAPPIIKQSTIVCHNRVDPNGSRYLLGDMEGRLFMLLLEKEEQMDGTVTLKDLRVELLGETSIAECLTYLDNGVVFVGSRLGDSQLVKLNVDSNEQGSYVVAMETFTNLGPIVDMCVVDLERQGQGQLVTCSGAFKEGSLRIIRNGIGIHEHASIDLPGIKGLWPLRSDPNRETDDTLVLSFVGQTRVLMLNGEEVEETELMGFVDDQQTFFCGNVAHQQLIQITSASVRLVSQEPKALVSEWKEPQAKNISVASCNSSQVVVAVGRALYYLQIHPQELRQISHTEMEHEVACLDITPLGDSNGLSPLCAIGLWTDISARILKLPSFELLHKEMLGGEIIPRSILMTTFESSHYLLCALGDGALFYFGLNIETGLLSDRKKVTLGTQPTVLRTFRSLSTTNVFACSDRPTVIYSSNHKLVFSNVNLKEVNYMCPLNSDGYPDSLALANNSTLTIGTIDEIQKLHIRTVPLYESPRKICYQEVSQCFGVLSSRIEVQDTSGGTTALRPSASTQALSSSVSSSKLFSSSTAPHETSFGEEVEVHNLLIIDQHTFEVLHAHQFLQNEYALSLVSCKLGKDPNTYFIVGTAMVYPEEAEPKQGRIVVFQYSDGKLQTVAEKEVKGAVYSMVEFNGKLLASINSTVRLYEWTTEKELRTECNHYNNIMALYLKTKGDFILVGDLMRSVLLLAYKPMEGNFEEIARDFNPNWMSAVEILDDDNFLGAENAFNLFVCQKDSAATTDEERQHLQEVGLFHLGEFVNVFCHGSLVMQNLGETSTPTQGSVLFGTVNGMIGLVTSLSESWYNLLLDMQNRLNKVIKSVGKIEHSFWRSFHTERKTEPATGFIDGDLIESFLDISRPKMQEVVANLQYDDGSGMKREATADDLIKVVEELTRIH
Experimental: HCT116 cells were used with passage numbers ranging from 13 to 25. Cells were seeded in 12-well plated at a density of 1 million cells per well in 1 mL cell culture medium containing McCoy's 5A medium (Cat. #16600082, ThermoFisher, Waltham, MA), 10% Fetal Bovine Serum (Cat. #26140, ThermoFisher, Waltham, MA) and 1% Pen-Strep (Cat. #. 15070063, ThermoFisher, Waltham, MA) and incubated overnight. The next morning, compounds were serially diluted (1:3, 9 points) in the medium separately and were prepared 2× the final assay concentration. Subsequently, 1.0 mL medium containing DMSO or the appropriate concentration of each compound was added to respective wells. The final DMSO concentration in each well was 0.1%. After 24 hour incubation with compounds, cell were harvested (approximately 90-100% confluency at the time of harvest). […] Lysates were then sonicated in a sonication bath (3 pulses of 10 sec each with 1 min incubation on ice between each pulse). Samples were then centrifuged for 20 min at 14,000 rpm for 20 min. Supernatants were then transferred to fresh microfuge tubes and stored frozen at −80° C. until use. Total protein quantitation in lysate samples was done using the BCA protein quantitation kit following the manufacturer's instructions. For polyacrylamide gel electrophoresis, each sample (15-30 […]), was diluted with Laemmli sample buffer (Cat. #. 1610747, BioRad, Hercules, CA) by adding 9 ul of lysate to 3 ul of sample buffer containing 10% β-mercaptoethanol. Samples were then denatured at 95° C. for 5 minutes in a heat block, centrifuged at 14,000 rpm for 5 min, and placed on ice. Subsequently, 12 ul of each sample was loaded on 4-20% Tris/Glycine gels and electrophoresed in 1×Tris/Glycine SDS buffer at 80 (constant) volts for 2 h. Resolved samples were then transferred from gels to PVDF membrane using the BioRad Turbo-transfer unit with the Turbo default program (Cat. #. 1704150EDU, BioRad, Hercules, CA). For immunoblotting, membranes were first blocked for 1 hour at room temperature using Odyssey Blocking Buffer (Cat. #: 927-60001, Li-cor, Lincoln, NE) with continuous rocking. Membrane was then incubated with primary antibodies, anti-RBM39 (Sigma Cat. #: HPA001591, St. Louis, MO) and anti-β-actin (Cell Signaling Cat. #3700S, Danvers, MA), diluted 1000 fold each, at 4° C. for overnight. […] Band intensity in images was quantified using the Image Studio Lite software (Version 5.2). Signal intensity for RBM-39 specific bands were normalized using the signal intensity for β-actin-specific band, and percent degradation was assessed by comparing RBM39 signal in compound-treated vs. DMSO-treated samples.

[3] = target: DCAF15 (Homo sapiens, UniProt Q66K64); assay: HTRF competition assay, binary interaction between compounds and DCAF15; assay type: binding; conditions: competition with Alexa Fluor 647 tracer, His-tagged DCAF15 complex
In short: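 Compounds, 3-fold serially diluted in DMSO, competed with an Alexa Fluor 647 tracer (612 nM, 2.04× stock) for His-tagged DCAF15 complex (32 nM, 4× stock) premixed 15 min with anti-6His-Eu cryptate. Buffer was 25 mM HEPES pH 7.5, 100 mM NaCl, 0.5 mM TCEP. After 1 h at RT, the 615/666 nm ratio gave titration curves.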

| Structure (SMILES) | EC50 [1] [nM] | Dmax [2] [%] | IC50 [3] [nM] |
| --- | --- | --- | --- |
| O=C(NC1CC1)c1ccc(S(=O)(=O)Nc2ccc(Cl)c3c(Cl)c[nH]c23)cc1 [Compound 153] | < 1000 | 94.8 | 1000 to 10000 |
| O=C(COc1ccc(S(=O)(=O)Nc2ccc(Cl)c3c(Cl)c[nH]c23)cc1)NC1CC1 [Compound 39] | < 1000 | 97.6 | > 100000 |
| CCS(=O)(=O)CCNC(=O)c1cccc(S(=O)(=O)Nc2ccc(Cl)c3c(Cl)c[nH]c23)c1F [Compound 190] | < 1000 | – | 1000 to 10000 |
| NCCc1ccc(COc2ccc(S(=O)(=O)Nc3ccc(Cl)c4c(Cl)c[nH]c34)cc2)cc1 [Compound 60] | 1000 to 10000 | – | 1000 to 10000 |
| O=C(N[C@H]1CCCCNC1=O)c1cccc(S(=O)(=O)Nc2ccc(Cl)c3c(Cl)c[nH]c23)c1F [Compound 160] | < 1000 | – | < 1000 |
| CN1C[C@@H](NC(=O)c2ccc(S(=O)(=O)Nc3ccc(Cl)c4c(Cl)c[nH]c34)c(F)c2)CCC1=O [Compound 159] | < 1000 | – | < 1000 |
| NCCc1ccc(COc2cccc(S(=O)(=O)Nc3ccc(Cl)c4c(Cl)c[nH]c34)c2)cc1 [Compound 59] | 1000 to 10000 | – | 10000 to 100000 |
| O=C(c1ccc(S(=O)(=O)Nc2ccc(Cl)c3c(Cl)c[nH]c23)c(F)c1)N1CCC(Oc2cccnc2)CC1 [Compound 220] | < 1000 | – | 1000 to 10000 |
| N[C@@H]1CCC[C@@H](Oc2ccc(S(=O)(=O)Nc3ccc(Cl)c4c(Cl)c[nH]c34)cc2)C1 [Compound 7] | < 1000 | – | 1000 to 10000 |
| O=S(=O)(Nc1ccc(Cl)c2c(Cl)c[nH]c12)c1ccc(OCCCc2ccc3c(c2)OCO3)cc1 [Compound 110] | > 100000 | – | > 100000 |
| O=C(NCCOC1CCS(=O)(=O)CC1)c1ccc(S(=O)(=O)Nc2ccc(Cl)c3c(Cl)c[nH]c23)c(F)c1 [Compound 189] | < 1000 | – | < 1000 |
| Cc1cc(CNC(=O)c2ccc(S(=O)(=O)Nc3ccc(Cl)c4c(Cl)c[nH]c34)c(F)c2)nn1C [Compound 175] | < 1000 | – | 1000 to 10000 |
| N[C@@H]1CCC[C@@H](Oc2cccc(S(=O)(=O)Nc3ccc(Cl)c4c(Cl)c[nH]c34)c2)C1 [Compound 6] | < 1000 | – | 10000 to 100000 |
| Cn1cc(CCOc2ccc(S(=O)(=O)Nc3ccc(Cl)c4c(Cl)c[nH]c34)cc2)c2ccccc21 [Compound 93] | > 100000 | – | > 100000 |
| CC(C)(C)OC(=O)NC1(CNC(=O)c2cccc(S(=O)(=O)Nc3ccc(Cl)c4c(Cl)c[nH]c34)c2F)CC1 [Compound 162] | 1000 to 10000 | – | 1000 to 10000 |
| CCN(CC)C(=O)c1ccc(CNC(=O)c2ccc(S(=O)(=O)Nc3ccc(Cl)c4c(Cl)c[nH]c34)c(F)c2)cc1 [Compound 171] | 1000 to 10000 | – | 1000 to 10000 |
| CCS(=O)(=O)CCOc1ccc(S(=O)(=O)Nc2ccc(Cl)c3c(Cl)c[nH]c23)cc1 [Compound 71] | 1000 to 10000 | 100 | 1000 to 10000 |

| Structure (SMILES) | EC50 [1] [nM] | Dmax [2] [%] | IC50 [3] [nM] |
| --- | --- | --- | --- |
| O=S(=O)(Nc1ccc(Cl)c2c(Cl)c[nH]c12)c1cccc(OCCC[C@@H]2CCCN2)c1 [Compound 96] | < 1000 | – | > 100000 |
| O=c1oc2ccccc2n1CCCOc1cccc(S(=O)(=O)Nc2ccc(Cl)c3c(Cl)c[nH]c23)c1 [Compound 112] | 1000 to 10000 | – | > 100000 |
| O=C(NCCc1ccccn1)c1ccc(S(=O)(=O)Nc2ccc(Cl)c3c(Cl)c[nH]c23)c(F)c1 [Compound 201] | < 1000 | – | 1000 to 10000 |
| CCS(=O)(=O)CCNC(=O)c1ccc(S(=O)(=O)Nc2ccc(Cl)c3c(Cl)c[nH]c23)c(F)c1 [Compound 191] | < 1000 | – | < 1000 |
| O=C(NCC1CCN(CCCc2ccccc2)CC1)c1cccc(S(=O)(=O)Nc2ccc(Cl)c3c(Cl)c[nH]c23)c1F [Compound 166] | < 1000 | – | 1000 to 10000 |
| O=C(c1cccc(S(=O)(=O)Nc2ccc(Cl)c3c(Cl)c[nH]c23)c1)N1CCOCC1 [Compound 218] | < 1000 | 100 | 1000 to 10000 |
| CN1CC(CCNC(=O)c2cccc(S(=O)(=O)Nc3ccc(Cl)c4c(Cl)c[nH]c34)c2F)C1 [Compound 192] | < 1000 | – | < 1000 |
| O=S(=O)(Nc1ccc(Cl)c2c(Cl)c[nH]c12)c1cccc(OCCCN2CCCc3ccccc32)c1 [Compound 114] | 1000 to 10000 | – | > 100000 |
| O=C1CC[C@H](NC(=O)c2ccc(S(=O)(=O)Nc3ccc(Cl)c4c(Cl)c[nH]c34)c(F)c2)CN1 [Compound 157] | < 1000 | – | < 1000 |
| O=C(NCCCOCc1ccccc1)c1ccc(S(=O)(=O)Nc2ccc(Cl)c3c(Cl)c[nH]c23)c(F)c1 [Compound 205] | < 1000 | – | > 100000 |
| O=C(c1cccc(S(=O)(=O)Nc2ccc(Cl)c3c(Cl)c[nH]c23)c1F)N1CCC(c2ccnc(C(F)F)c2)CC1 [Compound 221] | < 1000 | – | < 1000 |
| Cc1ccc(CCNC(=O)c2ccc(S(=O)(=O)Nc3ccc(Cl)c4c(Cl)c[nH]c34)c(F)c2)o1 [Compound 199] | 1000 to 10000 | – | 1000 to 10000 |
| CC(C)(C)OC(=O)N1CCC2(CC1)CN(C(=O)c1cccc(S(=O)(=O)Nc3ccc(Cl)c4c(Cl)c[nH]c34)c1F)CCO2 [Compound 224] | < 1000 | – | 1000 to 10000 |
| CCN(CC)C(=O)c1ccc(CNC(=O)c2cccc(S(=O)(=O)Nc3ccc(Cl)c4c(Cl)c[nH]c34)c2F)cc1 [Compound 170] | 1000 to 10000 | – | 1000 to 10000 |
| O=S(=O)(Nc1ccc(Cl)c2c(Cl)c[nH]c12)c1ccc(O[C@H]2CC[C@H](OCc3ccccc3)CC2)cc1 [Compound 19] | > 100000 | – | > 100000 |
| O=S(=O)(Nc1ccc(Cl)c2c(Cl)c[nH]c12)c1ccc(OC(F)F)c(F)c1 [Compound 38] | < 1000 | – | 1000 to 10000 |
